In one series the test system is CD3-induced IL-2 release. Conditions: Lewis rats; cited from earlier work.
A further series deals with neutrophils. Conditions: read-out: IC50 in fMLP-induced elastase exocytosis from neutrophils; cited from earlier work.
The target of the next series is PI3K p110 delta (Homo sapiens, UniProt O00329). Conditions: cited from earlier work.
Series [1] concerns H7N7 A/Equine/London/1416/73 influenza virus strain. The class given is in vivo. Conditions: wild type mice, 10×LD50 H7N7 London strain; vs vehicle only; FIG. 3B.
The subject of series [2] is PHA-activated CD4+ T cells. Kind of series: CD25 expression on CD4+ T cells exposed to HIV-1 (flow cytometry). Conditions: PHA-activated CD4+ T cells exposed to HIV-1; different concentrations, n=3; FIG. 6. The class given is cell-based, human.
The test system of the next series is HIV-1Ba-L. Kind of series: HIV-1 p24 levels in supernatants of infected PHA/IL-2-activated PBMC. The class given is cell-based. Conditions: n=4 donors, PBMC cultured with 1 μM, 10 μM or 50 μM, FIG. 4.
The subject of series [3] is influenza virus strain PR8. It counts as cell-based.

We go through seven molecules from patent US20130116267A1 (priority 2010, published 2013).

Entries after “also recorded” stand apart in the source; their conditions may differ. Where two headings read alike, the source gives them in different places.

Chain of PI3K p110 delta (O00329 whole entry): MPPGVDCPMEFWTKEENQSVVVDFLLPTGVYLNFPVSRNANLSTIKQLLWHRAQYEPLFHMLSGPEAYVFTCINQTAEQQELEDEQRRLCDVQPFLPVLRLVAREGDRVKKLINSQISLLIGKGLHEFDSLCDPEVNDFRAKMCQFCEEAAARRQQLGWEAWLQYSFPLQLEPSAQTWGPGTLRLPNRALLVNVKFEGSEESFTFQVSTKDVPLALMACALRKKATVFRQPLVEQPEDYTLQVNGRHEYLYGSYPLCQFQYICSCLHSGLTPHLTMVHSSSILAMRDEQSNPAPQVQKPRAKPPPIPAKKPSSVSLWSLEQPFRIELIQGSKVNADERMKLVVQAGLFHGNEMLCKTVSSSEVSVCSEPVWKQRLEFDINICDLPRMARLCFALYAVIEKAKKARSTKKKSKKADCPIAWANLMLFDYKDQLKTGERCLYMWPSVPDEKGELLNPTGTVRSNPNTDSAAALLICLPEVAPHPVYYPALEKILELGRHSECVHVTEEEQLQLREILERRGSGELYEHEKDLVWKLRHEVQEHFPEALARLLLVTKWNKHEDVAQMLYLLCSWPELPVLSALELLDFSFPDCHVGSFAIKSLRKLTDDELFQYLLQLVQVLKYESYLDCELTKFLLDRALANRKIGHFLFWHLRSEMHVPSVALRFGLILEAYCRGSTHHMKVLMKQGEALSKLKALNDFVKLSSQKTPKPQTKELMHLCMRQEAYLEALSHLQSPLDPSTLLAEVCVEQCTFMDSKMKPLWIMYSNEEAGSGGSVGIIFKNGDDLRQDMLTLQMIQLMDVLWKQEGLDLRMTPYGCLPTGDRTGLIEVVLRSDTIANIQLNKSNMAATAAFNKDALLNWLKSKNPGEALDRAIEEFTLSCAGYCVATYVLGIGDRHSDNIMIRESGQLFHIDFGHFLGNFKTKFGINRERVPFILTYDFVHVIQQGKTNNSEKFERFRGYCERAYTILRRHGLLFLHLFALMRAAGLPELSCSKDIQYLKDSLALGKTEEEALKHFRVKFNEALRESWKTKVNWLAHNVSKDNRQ
Chain of PI3K p110 delta (P27986 whole entry partner): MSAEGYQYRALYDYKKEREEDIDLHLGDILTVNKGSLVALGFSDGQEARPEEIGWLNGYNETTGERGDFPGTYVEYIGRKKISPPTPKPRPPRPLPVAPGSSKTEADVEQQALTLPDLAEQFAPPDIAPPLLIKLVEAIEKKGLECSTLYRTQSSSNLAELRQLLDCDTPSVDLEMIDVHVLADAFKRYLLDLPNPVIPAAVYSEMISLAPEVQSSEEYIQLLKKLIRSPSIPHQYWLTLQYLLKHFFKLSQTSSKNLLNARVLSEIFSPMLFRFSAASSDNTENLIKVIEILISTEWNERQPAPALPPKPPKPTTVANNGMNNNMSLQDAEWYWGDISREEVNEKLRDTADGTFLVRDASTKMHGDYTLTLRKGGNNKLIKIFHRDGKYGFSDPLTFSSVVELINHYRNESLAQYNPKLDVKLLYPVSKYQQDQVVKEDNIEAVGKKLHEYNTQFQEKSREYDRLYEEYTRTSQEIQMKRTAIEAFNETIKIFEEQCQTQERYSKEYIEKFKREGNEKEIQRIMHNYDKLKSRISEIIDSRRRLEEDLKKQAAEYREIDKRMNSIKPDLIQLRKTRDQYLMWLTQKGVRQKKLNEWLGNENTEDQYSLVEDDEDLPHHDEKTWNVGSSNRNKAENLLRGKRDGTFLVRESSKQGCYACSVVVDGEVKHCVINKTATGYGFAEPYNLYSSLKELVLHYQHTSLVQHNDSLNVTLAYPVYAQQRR

`COCC(O)Cn1cc(-c2ccc3c(c2)N(c2nc4c(s2)C(=O)NC(C)(C)C4)CCO3)cn1` (stereo not drawn) [Compound (XXI), 2-(6-(1-(2-hydroxy-3-methoxypropyl)-1H-pyrazol-4-yl)-2H-benzo[b][1,4]oxazin-4(3H)-yl)-6,6-dimethyl-6,7-dihydrothiazolo[5,4-c]pyridin-4(5H)-one]: the “ED50 in a CD3-induced IL-2 release study” value in the series on CD3-induced IL-2 release is reported as 5 mg/kg.

As to `Cc1noc2nc(C(C)Sc3ncnc4[nH]cnc34)n(-c3ccccc3)c(=O)c12` (stereo not drawn) [Compound (V), 6-(1-((9H-purin-6-yl)thio)ethyl)-3-methyl-5-phenylisoxazolo[5,4-d]pyrimidin-4(5H)-one], the IC50 with neutrophils was 1200 nM.

Turning to `Nc1nc(N)c2nc(-c3cccc4[nH]ccc34)cnc2n1` [Compound (XXIX), 6-(1H-indol-4-yl)pteridine-2,4-diamine], the IC50 at PI3K p110 delta (read-out: PI3K p110 delta IC50) is 64 nM.

Turning to `Cc1ccccc1-n1c(Cn2cnc3c(N)ncnc32)nc2cccc(C)c2c1=O` [IC87114, 2-[(6-amino-9H-purin-9-yl)methyl]-5-methyl-3-(o-tolyl)quinazolin-4(3H)-one], the “survival after lethal challenge” value in series [1] was “increased survival; also recorded: protects mice lethally challenged”. Besides, in the series with A549 cell, the “survival of A549 cell” value is “did not affect the survival”. Also, the CD25 expression entry in series [2] is given as “not affected”. Besides, the “reduction of 48 hour HIV-1 p24 levels” value with HIV-1Ba-L is listed as “approximately 80%”. For the same molecule, the influenza virus replication result in series [3] is “inhibits influenza virus replication”. In addition, in series [3] (A549 epithelial cell line infected with influenza virus, FIG. 1B: 100 μM, PR8, MOI=0.01), the “viral mRNA production reduced compared to untreated cells” value is on record as roughly 25 fold.

As for `CC(c1nc2ccsc2c(=O)n1-c1ccccc1)n1cnc2c(N)ncnc21` (stereo not drawn) [Compound (IV), 2-(1-(6-amino-9H-purin-9-yl)ethyl)-3-phenylthieno[3,2-d]pyrimidin-4(3H)-one], the IC50 at PI3K p110 delta (read-out: PI3K p110 delta IC50) was 40 nM.

For the molecule `COc1ncc(-c2ccc3nccc(-c4ccncc4)c3c2)cc1NS(=O)(=O)c1ccc(F)cc1F` [Compound (XXXII), 2,4-difluoro-N-(2-methoxy-5-(4-(pyridin-4-yl)quinolin-6-yl)pyridin-3-yl)-benzenesulfonamide], the IC50 at PI3K p110 delta (read-out: apparent PI3K p110 delta IC50) is 0.024 nM.

For `Cc1oc2ncn(CC(C)C)c(=O)c2c1C(=O)NCc1cccnc1` [Compound (VI), 3-isobutyl-6-methyl-4-oxo-N-(pyridin-3-ylmethyl)-3,4-dihydrofuro[2,3-d]pyrimidine-5-carboxamide], the IC50 at PI3K p110 delta (read-out: PI3K p110 delta IC50) was 1200 nM.
